This note sets out measurements from paper PMC6588697, “Lugdunin amplifies innate immune responses in the skin in synergy with host- and microbiota-derived factors” (Nature Communications, 2019).

Experiment [1] concerns HTEpCs. Put plainly: CXCL8 expression in HTEpCs (qRT-PCR). The class given is cell-based, human. Particulars: 5 h, two technical replicates. The method, then: Quantitative reverse transcription-polymerase chain reaction (qRT-PCR) was performed in 10 µL reaction volume with SYBR^TM Green PCR Master Mix (Thermo Fisher) according to the manufacturer’s instructions using a LightCycler 96 (Roche Life Science). The initial denaturation step was at 95 °C for 5 min, followed by 40 cycles with 10 s each for the denaturation step at 95 °C, the annealing at individual temperature, and the elongation at 72 °C. Primer sequences and respective annealing temperatures are listed in Supplementary Table 1. […]
31 g+h+i: HNEpCs (b), HTEpCs (c) or PBMCs (d) were treated with increasing
32 concentrations of lugdunin (grey bars) or 100 ng/mL Pam2Cys or Pam3Cys (white
33 bars) as positive controls for 5 hours and subsequently expression of CXCL8 was
34 analyzed and normalized to actin. Black bar: medium control. Shown is one
35 representative experiment of three independent experiments with two technical
36 replicates +/-s.e.m. Significant differences to control treatments were analyzed by
37 ordinary one-way ANOVA followed by Dunnett’s multiple comparisons test (*P<0.05; […]
On the technique in general: In qPCR the cycle at which signal appears reflects the starting amount.

Experiment [2] concerns PBMCs. Put plainly: Cytokine release into PBMC supernatant (LEGENDplex / ELISA). It counts as cell-based, human. Particulars: 5 h, lugdunin 2 µM or Pam2Cys 100 ng/mL, two technical replicates, Fig 1f. The method, then: (§1) Fig. 1 Lugdunin sensitizes epithelial cells for innate immune defense. a Primary human keratinocytes (PHKs) were pretreated with S. epidermidis conditioned medium (CM), indicated lugdunin concentrations, or the combination of both for 20 h. Subsequently, cells were infected with S. aureus for 1.5 h followed by cell lysis and determination of colony-forming units (CFUs). Shown is one representative experiment of three independent experiments with six technical replicates ± s.e.m. n.s., not significant. b Dorsal skin of mice was pretreated with S. epidermidis CM, 1.5 µg lugdunin alone or in combination with S. epidermidis CM for 24 h. Subsequently, S. aureus CFUs were determined. Horizontal lines represent the mean of each group ± s.e.m. c PHKs were treated with 2 μM lugdunin or with S. epidermidis CM alone or in combination for 20 h and subsequently expression of indicated antimicrobial peptides (AMPs) (respective protein names in brackets) was analyzed and normalized to actin. Shown is one representative experiment of three independent experiments with two technical replicates ± s.e.m. d PHKs were treated with 2 µM lugdunin or 100 ng/mL Pam2Cys for 5 h and subsequently the concentration of indicated cytokines in the supernatant was analyzed by LEGENDplex^TM (BioLegend). […]
For orientation: An ELISA detects its analyte on a solid surface through an enzyme-linked reagent.

Experiment [3] deals with S. aureus. Put plainly: S. aureus skin colonization after epicutaneous pretreatment of mouse skin (CFU). It counts as in vivo, C57BL/6 WT mice. Particulars: treatment of mouse skin; text to Fig 1b. The method, then: as §1
Experiment [4] deals with S. aureus. Put plainly: Adhesion and invasion assay: S. aureus on pretreated PHKs (CFU). It counts as cell-based, Staphylococcus aureus. Particulars: lugdunin alone; text to Fig 1a. The protocol: as §1

Several values for one entry are separate records, joined by “and”; a condition that tells them apart may be missing. Equal values may be shown once. Where only a bound is given, the exact number is not on record here.

As to Lugdunin, the CXCL8 fold induction in experiment [1] (lugdunin 0.5 µM, sheet Supp Fig 1g) was 1.537 and 1.231; in experiment [1] (lugdunin 1 µM), 4.112 and 4.228; in experiment [1] (lugdunin 2 µM), 16.564 and 16; in experiment [1] (lugdunin 3 µM), 18.001 and 14.929; in experiment [1] (lugdunin 5 µM), 23.264 and 22.316; in experiment [1] (lugdunin 10 µM) it was 16.056 and 17.328. Moreover, the “CXCL8 concentration in supernatant” value in experiment [2] was 231.761 and 233.451. Moreover, the “reduction of colonizing S. aureus (in words)” value in experiment [3] is “slight, but not significant, reduction”. The “lugdunin concentration at which pretreatment of PHKs significantly reduced the number of adhering S. aureus” value in experiment [4] is ≥ 2 µM.
